Source: PMC6669887 (Analytical chemistry, 2019)

Tested on: A2AR
Test: Affinity MS assay/screen with purified immobilized receptor
Format: binding
Conditions: 480-mix cocktails

- hit detection/selection in 480-mix screens: detected in all cocktails
Structure (SMILES): CCNC(=O)[C@H]1O[C@@H](n2cnc3c(NCC(c4ccccc4)c4ccccc4)nc(C(=O)NCCNC(=O)NC4CCN(c5ccccn5)CC4)nc32)[C@H](O)[C@@H]1O [UK-432,097]
